From patent US20150105252A1, “SUBSTITUTED PYRAZOLES AS HERBICIDES” (E I DU PONT DE NEMOURS AND COMPANY, priority 2013, published 2015)

Assays:
windgrass = assay: Test C postemergence; type: in vivo, Apera spica-venti; details: 62 g ai/ha, scale 0 to 100
oat, wild = assay: Test C preemergence; type: in vivo, Avena fatua; details: for Plant response rating (scale of 0 to 100), Oat, Wild: Preemergence, 250 g ai/ha; for Oat, Wild plant response rating / Plant response rating, Oat, Wild: preemergence; for Plant response rating, Oat, Wild: 62 g ai/ha, scale 0 to 100, 0 = no effect, 100 = complete control
From the text: (§1) Seeds of plant species selected from blackgrass (Alopecurus myosuroides), ryegrass, Italian (Italian ryegrass, Lolium multiflorum), wheat (winter wheat, Triticum aestivum), galium (catchweed bedstraw, Galium aparine), corn (Zea mays), crabgrass, large (large crabgrass, Digitaria sanguinalis), foxtail, giant (giant foxtail, Setaria faberii), johnsongrass (Sorghum halepense), lambsquarters (Chenopodium album), morningglory (Ipomoea coccinea), nutsedge, yellow (yellow nutsedge, Cyperus esculentus), pigweed (redroot pigweed, Amaranthus retroflexus), ragweed (common ragweed, Ambrosia elation), soybean (Glycine max), barnyardgrass (Echinochloa crus-galli), oilseed rape (Brassica napus), waterhemp (common waterhemp, Amaranthus rudis), oat, wild (wild oat, Avena fatua), kochia (Kochia scoparia), Surinam grass (Brachiaria decumbens), foxtail, green (green foxtail, Setaria viridis), goosegrass (Eleusine indica), bromegrass, downy (downy bromegrass, Bromus tectorum), nightshade (eastern black nightshade, Solanum ptycanthum), cocklebur (common cocklebur, Xanthium strumarium), cupgrass, woolly (woolly cupgrass, Eriochloa villosa), bermudagrass (Cynodon dactylon), sunflower, (common oilseed sunflower, Helianthus annuus), Russian thistle (Salsola kali), and velvetleaf (Abutilon theophrasti) were planted into a blend of loam soil and sand and treated preemergence with test chemicals formulated in a non-phytotoxic solvent mixture which included a surfactant.
(§2) At the same time, plants selected from these crop and weed species and also chickweed (common chickweed, Stellaria media), canarygrass (littleseed canarygrass, Phalaris minor), and deadnettle (henbit deadnettle, Lamium amplexicaule), were planted in pots containing Redi-Earth® planting medium (Scotts Company, 14111 Scottslawn Road, Marysville, Ohio 43041) comprising spaghnum peat moss, vermiculite, wetting agent and starter nutrients and treated with postemergence applications of test chemicals formulated in the same manner. Plants ranged in height from 2 to 18 cm (1- to 4-leaf stage) for postemergence treatments. Treated plants and controls were maintained in a greenhouse for 13 to 15 days, after which time all species were compared to controls and visually evaluated. Plant response ratings, summarized in Table C, are based on a scale of 0 to 100 where 0 is no effect and 100 is complete control. A dash (-) response means no test result.

goosegrass = assay: Test C postemergence; type: in vivo, Eleusine indica; details: for Goosegrass plant response rating: scale 0 to 100
From the text: as §1, §2

barley = assay: Test C postemergence; type: in vivo, Hordeum vulgare; details: 250 g ai/ha, scale 0 to 100 (0 no effect, 100 complete control)
[1] = 31 g ai/ha, scale 0 to 100 (0 no effect, 100 complete control), 13 to 15 days
[2] = 125 g ai/ha, scale 0 to 100, 0 is no effect, 100 is complete control
[3] = postemergence, 250 g ai/ha, scale 0 to 100 (0 no effect, 100 complete control)
[4] = postemergence, 125 g ai/ha, scale 0 to 100, 0 no effect, 100 complete control

## CCONC(=O)c1cc(CC)n(Cc2cccc(OC(F)(F)F)c2)n1 [Compound 72]
windgrass
  Windgrass plant response rating: 20
oat, wild
  Plant response rating (scale of 0 to 100), Oat, Wild: 85
oat, wild; [1]
  Oat, Wild plant response rating: 30
oat, wild; 13 to 15 days
  Plant response rating, Oat, Wild: 60
oat, wild; [2]
  Oat, Wild plant response rating: 80
goosegrass; Postemergence, 31 g ai/ha
  Goosegrass plant response rating: 0
goosegrass; postemergence, 62 g ai/ha
  Goosegrass plant response rating: 0
goosegrass; [3]
  Plant response rating, Goosegrass: 5
goosegrass; [4]
  Plant response rating, Goosegrass: 0
barley
  Plant response rating, Barley: 10

## CCc1cc(C(=O)NOC(C)C)nn1Cc1cccc(OC(F)(F)F)c1 [Compound 70]
windgrass
  Windgrass plant response rating: 25
oat, wild
  Plant response rating (scale of 0 to 100), Oat, Wild: 65
oat, wild; [1]
  Oat, Wild plant response rating: 5
oat, wild; 13 to 15 days
  Plant response rating, Oat, Wild: 10
oat, wild; [2]
  Oat, Wild plant response rating: 50
goosegrass; Postemergence, 31 g ai/ha
  Goosegrass plant response rating: 5
goosegrass; [3]
  Plant response rating, Goosegrass: 15
goosegrass; postemergence, 62 g ai/ha, scale 0 to 100, 0 no effect, 100 complete control
  Plant response rating, Goosegrass: 5
goosegrass; [4]
  Plant response rating, Goosegrass: 10
barley
  Plant response rating, Barley: 25
